Measurements taken from patent US20230085307A1, “PYRIDAZINONE COMPOUND AND HERBICIDE” (NISSAN CHEMICAL CORPORATION, priority 2019, published 2023).

Key:
late watergrass = assay: Test Example 1: herbicidal activity, application before weed generation under submerged conditions (Table 16, symbol A); assay type: in vivo, late watergrass (Echinochloa oryzicola)
Description: (§1) [Test Example 1] Herbicidal Activity Test by Application before Weed Generation under Submerged Conditions After alluvial soil was placed into 1/10000 are of Wagner pot, water was poured and mixed to form a submerged condition having a water depth of 4 cm. Seeds of late watergrass, Japanese bulrush, and oval-leafed pondweed were sowed in a mixed manner in the aforementioned pot, and then 2.5 leaf stage rice plant seedlings were transplanted thereto. On the day of sowing seeds, the emulsion agent of the compound of the present invention prepared according to Formulation Example 2 was diluted with water so as to achieve a predetermined herbicide amount, and the diluted emulsion agent was applied to the surface of the water. The pot was placed in a greenhouse at 25° C. to 30° C. for growth of the plants. Three weeks after the herbicide application, the effect of the herbicide on each plant was evaluated according to the following criteria. Evaluation Criteria 5: Herbicidal rate of 90% or more (almost completely withered) 4: Herbicidal rate of 70% or more and less than 90% 3: Herbicidal rate of 40% or more and less than 70% 2: Herbicidal rate of 20% or more and less than 40% 1: Herbicidal rate of 5% or more and less than 20% 0: Herbicidal rate of 5% or less (almost no effect)

Japanese bulrush = assay: Test Example 1: herbicidal activity, application before weed generation under submerged conditions (Table 16, symbol B); assay type: in vivo, Japanese bulrush (Schoenoplectus juncoides)
In short: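 Submerged Wagner pots (alluvial soil, 4 cm water) sown with weed seeds and planted with 2.5-leaf rice seedlings; emulsifiable concentrate diluted in water applied to water surface on sowing day. Held in greenhouse at 25-30 °C; injury scored 0-5 by herbicidal rate after three weeks.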

oval-leafed pondweed = assay: Test Example 1: herbicidal activity, application before weed generation under submerged conditions (Table 16, symbol C); assay type: in vivo, oval-leafed pondweed (Monochoria vaginalis)
Description: as §1

barnyard grass [1] = assay: Test Example 3: herbicidal effect by foliage application, Wagner pot (Table 18, symbol H); assay type: in vivo, barnyard grass (Echinochloa crus-galli)
In short: (§2)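 Plants were sown in alluvial soil held under 0.1–0.5 cm standing water and grown 14 days in a greenhouse at 25–30 °C. An emulsifiable formulation, water-diluted to the set dose, was then sprayed onto the foliage, and effects were scored three weeks later using previously defined criteria.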

Chinese sprangletop = assay: Test Example 3: herbicidal effect by foliage application, Wagner pot (Table 18, symbol D); assay type: in vivo, chinese sprangletop (Leptochloa chinensis)
In short: as §2

rice flat sedge = assay: Test Example 3: herbicidal effect by foliage application, Wagner pot (Table 18, symbol E); assay type: in vivo, rice flat sedge (Cyperus iria)
In short: as §2

southern crabgrass = assay: Test Example 5: herbicidal effect by foliage application, plastic box (Table 20, symbol F); assay type: in vivo, southern crabgrass (Digitaria ciliaris); details: foliage application, AAH 320 g/ha, evaluated three weeks after application
In short: (§3)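 Sow seeds spot-wise in sterilized diluvial soil; cover with ~1.5 cm soil. Grow 14 days in greenhouse, 25° C. to 30° C. Spray foliage with emulsion diluted to predetermined amount. Rate effect after 3 weeks.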

green foxtail = assay: Test Example 5: herbicidal effect by foliage application, plastic box (Table 20, symbol G); assay type: in vivo, green foxtail (Setaria viridis); details: foliage application, AAH 320 g/ha, evaluated three weeks after application
In short: as §3

barnyard grass [2] = assay: Test Example 5: herbicidal effect by foliage application, plastic box (Table 20, symbol H); assay type: in vivo, barnyard grass (Echinochloa crus-galli); details: foliage application, AAH 320 g/ha, evaluated three weeks after application
In short: as §3

wild oat = assay: Test Example 5: herbicidal effect by foliage application, plastic box (Table 20, symbol I); assay type: in vivo, wild oat (Avena fatua); details: foliage application, AAH 320 g/ha, evaluated three weeks after application
In short: as §3

blackgrass = assay: Test Example 5: herbicidal effect by foliage application, plastic box (Table 20, symbol J); assay type: in vivo, blackgrass (Alopecurus myosuroides); details: foliage application, AAH 320 g/ha, evaluated three weeks after application
In short: as §3

Italian ryegrass = assay: Test Example 5: herbicidal effect by foliage application, plastic box (Table 20, symbol K); assay type: in vivo, Italian ryegrass (Lolium multiflorum); details: foliage application, AAH 320 g/ha, evaluated three weeks after application
In short: as §3

windgrass = assay: Test Example 5: herbicidal effect by foliage application, plastic box (Table 20, symbol L); assay type: in vivo, windgrass (Apera spica-venti); details: foliage application, AAH 320 g/ha, evaluated three weeks after application
In short: as §3

velvetleaf = assay: Test Example 5: herbicidal effect by foliage application, plastic box (Table 20, symbol M); assay type: in vivo, velvetleaf (Abutilon theophrasti); details: foliage application, AAH 320 g/ha, evaluated three weeks after application
In short: as §3

redroot pigweed = assay: Test Example 5: herbicidal effect by foliage application, plastic box (Table 20, symbol N); assay type: in vivo, redroot pigweed (Amaranthus retroflexus); details: foliage application, AAH 320 g/ha, evaluated three weeks after application
In short: as §3

lambsquarters = assay: Test Example 5: herbicidal effect by foliage application, plastic box (Table 20, symbol O); assay type: in vivo, lambsquarters (Chenopodium album); details: foliage application, AAH 320 g/ha, evaluated three weeks after application
In short: as §3

persian speedwell = assay: Test Example 5: herbicidal effect by foliage application, plastic box (Table 20, symbol R); assay type: in vivo, Persian speedwell (Veronica persica); details: foliage application, AAH 320 g/ha, evaluated three weeks after application
In short: as §3

[3] = amount of applied herbicide 224 g/ha
[4] = amount of applied herbicide 320 g/ha

SMILES: Cc1nn(C)c(=O)c(-c2c(-c3cccc(OCC(F)(F)F)c3)sc3ccc(F)cc23)c1O [2-238]
- Herbicidal effect on A: late watergrass (grade 0-5) (late watergrass; 224 g/ha applied herbicide): 3 (Herbicidal rate of 40% or more and less than 70%)
- Herbicidal effect on B: Japanese bulrush (grade 0-5) (Japanese bulrush; 224 g/ha applied herbicide): 0 (Herbicidal rate of 5% or less (almost no effect))
- Herbicidal effect on C: oval-leafed pondweed (grade 0-5) (oval-leafed pondweed; 224 g/ha applied herbicide): 0 (Herbicidal rate of 5% or less (almost no effect))
- herbicidal effect on H: barnyard grass (barnyard grass [1]; [3]): 3 (Herbicidal rate of 40% or more and less than 70%)
- herbicidal effect on D: Chinese sprangletop (Chinese sprangletop; [3]): 2 (Herbicidal rate of 20% or more and less than 40%)
- herbicidal effect on E: rice flat sedge (rice flat sedge; [3]): 3 (Herbicidal rate of 40% or more and less than 70%)

SMILES: CSCCOc1cccc(-c2sc3ccc(F)cc3c2-c2c(O)c(C)nn(C)c2=O)c1 [2-273]
- Herbicidal effect on A: late watergrass (grade 0-5) (late watergrass; 320 g/ha applied herbicide): 3 (Herbicidal rate of 40% or more and less than 70%)
- Herbicidal effect on B: Japanese bulrush (grade 0-5) (Japanese bulrush; 320 g/ha applied herbicide): 0 (Herbicidal rate of 5% or less (almost no effect))
- Herbicidal effect on C: oval-leafed pondweed (grade 0-5) (oval-leafed pondweed; 320 g/ha applied herbicide): 0 (Herbicidal rate of 5% or less (almost no effect))
- F: southern crabgrass, herbicidal effect (criteria 0-5) (southern crabgrass): 0 (Herbicidal rate of 5% or less (almost no effect))
- G: green foxtail, herbicidal effect (criteria 0-5) (green foxtail): 0 (Herbicidal rate of 5% or less (almost no effect))
- H: barnyard grass, herbicidal effect (criteria 0-5) (barnyard grass [2]): 0 (Herbicidal rate of 5% or less (almost no effect))
- I: wild oat, herbicidal effect (criteria 0-5) (wild oat): 0 (Herbicidal rate of 5% or less (almost no effect))
- J: blackgrass, herbicidal effect (criteria 0-5) (blackgrass): 0 (Herbicidal rate of 5% or less (almost no effect))
- K: Italian ryegrass, herbicidal effect (criteria 0-5) (Italian ryegrass): 1 (Herbicidal rate of 5% or more and less than 20%)
- L: windgrass, herbicidal effect (criteria 0-5) (windgrass): 0 (Herbicidal rate of 5% or less (almost no effect))
- M: velvetleaf, herbicidal effect (criteria 0-5) (velvetleaf): 0 (Herbicidal rate of 5% or less (almost no effect))
- N: redroot pigweed, herbicidal effect (criteria 0-5) (redroot pigweed): 2 (Herbicidal rate of 20% or more and less than 40%)
- O: lambsquarters, herbicidal effect (criteria 0-5) (lambsquarters): 0 (Herbicidal rate of 5% or less (almost no effect))
- R: persian speedwell, herbicidal effect (criteria 0-5) (persian speedwell): 4 (Herbicidal rate of 70% or more and less than 90%)

SMILES: Cc1nn(C)c(=O)c(-c2c(-c3cc(C(F)(F)F)cc(C(F)(F)F)c3)sc3ccc(F)cc23)c1O [2-358]
- Herbicidal effect on A: late watergrass (grade 0-5) (late watergrass; 320 g/ha applied herbicide): 3 (Herbicidal rate of 40% or more and less than 70%)
- Herbicidal effect on B: Japanese bulrush (grade 0-5) (Japanese bulrush; 320 g/ha applied herbicide): 0 (Herbicidal rate of 5% or less (almost no effect))
- Herbicidal effect on C: oval-leafed pondweed (grade 0-5) (oval-leafed pondweed; 320 g/ha applied herbicide): 0 (Herbicidal rate of 5% or less (almost no effect))
- herbicidal effect on H: barnyard grass (barnyard grass [1]; [4]): 3 (Herbicidal rate of 40% or more and less than 70%)
- herbicidal effect on D: Chinese sprangletop (Chinese sprangletop; [4]): 1 (Herbicidal rate of 5% or more and less than 20%)
- herbicidal effect on E: rice flat sedge (rice flat sedge; [4]): 3 (Herbicidal rate of 40% or more and less than 70%)
